How the values were obtained:
[1] = test system: SiHa cervical cancer cells; conditions: in vitro, hypoxic/anoxic conditions; cited from earlier work
[2] = test system: desmoplastic tumour; conditions: mouse, in vivo; cited from earlier work
[3] = test system: LOX; conditions: CIA rats; cited from earlier work
[4] = test system: ovarian cancer; conditions: ovarian cancer genetically engineered mouse models; cited from earlier work
[5] = molecular target: T1, Human MAO-A (Homo sapiens, UniProt P21397); assay: Inhibition of human recombinant MAO-A; format: biochemical; conditions: 2 hours incubation; substrate tyramine 200 μM
T1 construct: purchased Sigma Aldrich
T1 sequence (P21397 whole entry): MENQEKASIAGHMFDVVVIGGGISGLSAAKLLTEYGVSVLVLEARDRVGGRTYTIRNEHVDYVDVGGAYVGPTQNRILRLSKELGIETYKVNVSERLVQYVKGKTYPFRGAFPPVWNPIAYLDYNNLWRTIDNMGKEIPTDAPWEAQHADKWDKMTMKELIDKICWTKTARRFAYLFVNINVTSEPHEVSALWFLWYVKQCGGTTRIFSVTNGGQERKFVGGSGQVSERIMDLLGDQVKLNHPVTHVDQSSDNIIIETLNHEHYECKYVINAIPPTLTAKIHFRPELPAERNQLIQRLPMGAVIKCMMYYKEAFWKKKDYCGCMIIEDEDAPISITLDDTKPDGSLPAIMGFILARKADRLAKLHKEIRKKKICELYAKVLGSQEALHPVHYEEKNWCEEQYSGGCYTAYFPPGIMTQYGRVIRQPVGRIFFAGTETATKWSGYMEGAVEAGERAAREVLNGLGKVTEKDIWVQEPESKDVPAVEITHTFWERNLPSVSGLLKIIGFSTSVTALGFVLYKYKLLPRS

[6] = test system: TA98, TA100, TA1535 and TA1537 strains of Salmonella typhimurium and WP2uvrA (pKM101) strain of Escherichia coli; assay: Bacterial Reverse Mutation Test, initial and confirmatory mutation assay
Protocol: The test item Compound 1 was tested for its mutagenic potential in the bacterial reverse mutation assay. The study was conducted using TA98, TA100, TA1535 and TA1537 strains of Salmonella typhimurium and WP2uvrA (pKM101) strain of Escherichia coli in three phases; a preliminary toxicity test, an initial mutation assay and a confirmatory mutation assay. The bacterial tester strains were exposed to the test item in the presence and absence of metabolic activation system (S9 fraction prepared from Aroclor 1254 induced rat liver).
The bacterial tester strains were exposed to the test item in triplicate at 50, 158, 500, 1581 and 5000 μg/plate. The initial mutation assay was conducted using the direct plate incorporation mode of exposure whereas the confirmatory mutation assay was carried out using the pre-incubation mode of exposure. The vehicle control (DMSO) and the appropriate positive controls were tested simultaneously. The mean and standard deviation of numbers of revertant colonies were calculated for each test dose and the controls for all the tester strains.

[7] = test system: SSAO/VAP-1, MAO-B, MAO-A and DAO; assay: Selectivity with respect to other amine oxidases; format: biochemical, human
Protocol: Human recombinant SSAO/VAP-1 amine oxidase activity was determined using the coupled colorimetric method as described for monoamine oxidase, copper-containing amine oxidases and related enzymes [Holt A. and Palcic M., 2006]. Briefly, a cloned cDNA template corresponding to residues 34-763 of human SSAO/VAP-1, and incorporating a mouse Ig kappa (κ) signal sequence, N-terminal flag epitope tag and tobacco etch virus (TEV) cleavage site, was assembled in a mammalian expression vector (pLO-CMV) by Geneart AG. This vector containing human SSAO/VAP-1 residues was transfected into CHO-K1 glycosylation mutant cell line, Lee 8. A clone stably expressing human SSAO/VAP-1 was isolated and cultured in large scale. Active human SSAO/VAP-1 was purified and recovered using immunoaffinity chromatography. This was used as the source for SSAO/VAP-1 activity. A high-throughput fluorescent assay was developed using either 96 or 384 well format. Briefly, in a standard 384 well plate assay 25 μL of purified human SSAO/VAP-1 (0.25 μg/mL) in 0.1 M sodium phophate buffer (pH 7.4) was added into each well. […] The fluorescence unit (RFU) was read every 2.5 min for 30 min at 37 °C excitation 544 nm and emission 590 (Optima; BMG labtech). The slope/min of the kinetics for each well was calculated using MARS data analysis software (BMG labtech) and this value was used to deduce the IC50 value (Dotmatics). […]

[8] = test system: collagen cross-links; assay: Rodent injury model (full-thickness skin excision); format: in vivo, mice
Protocol: Mice received injury by excision of full-thickness skin (3 cm^2 on the flank of the mice). In the treatment groups, 4% Compound 1 solution was applied topically, once a day, starting from 24 hours post injury to 1 week post injury. Wounds were then left to heal for an additional week. Mice were euthanized at 4-6 weeks post injury and the tissue was analyzed for collagen content, hydroxyproline as a surrogate marker of collagen content, extracted cross-link biomarkers: HLNL, DHLNL (reduced forms of deH-HLNL and deH-DHLNL respectively), PYD and DPD, elastin content, and changes in gross morphology and histology (using polarised light microscopy, immunohistochemistry, standard staining markers and LCMSMS).

[9] = Diffusion through human skin, Franz diffusion cell; format: in vitro ADME; conditions: topical formulation containing 2% Compound 1
Text: Skin permeability is essential when considering topical application to treat skin conditions. One way to evaluate skin permeability is to use a Franz diffusion cell system with human skin as a membrane (Particle Sciences; Technical Brief 2009; Vol. 10). The donor compound (Compound 1), topically formulated, is applied on the top chamber and diffusion through the skin is monitored at relevant time points by sampling the solution in the receptor chamber via the sampling port. The concentration of Compound 1 was determined by quantitative HPLC analysis.

[10] = Solubility and stability of test item in DMSO vehicle; format: physicochemical; conditions: for Stability in vehicle DMSO: at 20 μg/mL and 50000 μg/mL
Protocol: The test item was soluble in DMSO at 50 mg/mL and was used as the vehicle of choice in the mutation assay.

[11] = 4% solution topically once a day, 24 hours to 1 week post injury, vs control (FIG. 4, *=P≤0.05)

SMILES | Invasion of SiHa cells [1] | Metastatic load and survival [2] | Effect on inflammation, synovial hyperplasia, angiogenesis, MMP-2 and MMP-9 expression [3] | Survival and lung metastasis [4] | IC50 [5] | Mutagenic increase in revertant colonies ([6]; 50-5000 μg/plate, with and without metabolic activation (S9), initial and confirmatory assay, all tester strains) | Mutagenicity ([6]; up to the top dose 5000 μg/plate) | Selectivity for LOX family with respect to SSAO/VAP-1, MAO-B, MAO-A and DAO [7] | Immature crosslinks (LCMS, normalized for protein content) [8, 11] | Mature crosslinks (LCMS, normalized for protein content) [8, 11] | Collagen cross-links ([8]; rodent injury model, FIG. 4 (*=P≤0.05)) | Level in the receptor chamber ([9]; after 24 hours (FIG. 2)) | Permeability and diffusion through human skin ([9]; time dependent (FIG. 2)) | solubility ([10]; dmso, organic solvent or mixture) | Stability in vehicle DMSO ([10]; refrigerated temperature) | Stability in vehicle DMSO ([10]; room temperature)
N#CCCN [BAPN, β-aminopropionitrile, reference compound] | repressed | lower metastatic load and increased survival | attenuate inflammation, synovial hyperplasia, angiogenesis and expression of MMP-2 and MMP-9 | significantly increased survival and decreased lung metastasis | – | – | – | – | – | – | – | – | – | – | – | –
NC/C(=C\F)CS(=O)(=O)c1ccccc1 [Compound 1, (E)-3-fluoro-2-((phenylsulfonyl)methyl)prop-2-en-1-amine] | – | – | – | – | > 100 µM | did not show any positive mutagenic increase | not mutagenic | selectively inhibit members of the LOX family of enzymes | reduced | reduced | reduction in collagen cross-links | high levels | good permeability and diffusion | ≥ 50 mg/mL | ≥ 4 days | ≥ 0.25 days

— patent publication US20260364030A1, “NOVEL SELECTIVE INHIBITORS OF LYSYL OXIDASES” (Syntara Limited, priority 2022, published 2026)
